Where a name gives a salt, the structure may show the parent alone. Read-outs that look alike come from different tables or passages of the source.
Experiments:
[1] = Relaxing efficiency (% RE) of hair swatch after treatment, 24 hours at 90% RH
Protocol: A naturally kinky hair swatch was relaxed using a composition comprising at least one hydroxide composition comprising at least one hydroxide compound and at least one activating composition comprising at least one complexing agent according to the present invention. The relaxed hair swatch was then rinsed, shampooed, and then placed in the humidity chamber at 90% Relative Humidity (% RH) for 24 hours. The percent Relaxing Efficiency (% RE) is defined as:
Lf=length of the relaxed hair after 24 hours at 90% RH
Lt=length of the hair at the straight configuration
This mucic acid sodium salt slurry was mixed with 6 g of a 7% calcium hydroxide cream. The calcium hydroxide cream contained the following ingredients by weight, relative to the total weight of the cream:
The mixture of mucic acid sodium salt slurry and calcium hydroxide cream was applied to naturally kinky hair for 30 minutes. The treated hair was shampooed and then placed in a humidity chamber at 90% RH for 24 hours.

Solubility = format: physicochemical
[2] = for Appearance / pH: 3 g VERSENE 220 in 97 g water
Protocol: The present invention also provides for a simple screening test, which may be used to determine the applicability of a complexing agent for use as the at least one complexing agent in the lanthionizing compositions of the present invention.
A screening test to determine the applicability of a complexing agent for use in the lanthionizing compositions of the present invention was carried out.

[3] = Generation of hydroxide ions from mucic acid sodium salt slurry and calcium hydroxide (pH measurement); format: physicochemical; settings: 7 g mucic acid + 2.66 g sodium hydroxide slurry
Protocol: An incremental amount of calcium hydroxide was then added slowly to the slurry of mucic acid sodium salt, and the pH was measured.

For `O=C(O)C(O)C(O)C(O)C(O)C(=O)O` (stereo not shown) [Mucic Acid, 1,2,3,4-tetrahydroxy-1,4-butane dicarboxylic acid], the “% RE” value ([1]; curly hair, 6 g 7% calcium hydroxide cream, 1:0.7 molar ratio calcium hydroxide:mucic acid, 2 g water in mucic acid salt slurry) was 42%, the “% RE” value ([1]; curly hair, 6 g 7% calcium hydroxide cream, 1:0.7 molar ratio calcium hydroxide:mucic acid, 3 g water in mucic acid salt slurry) was 88% and the “% RE” value ([1]; curly hair, 6 g 7% calcium hydroxide cream, 1:0.7 molar ratio calcium hydroxide:mucic acid, 4 g water in mucic acid salt slurry) was 95%. The “% RE” value ([1]; curly hair, 6 g 7% calcium hydroxide cream, 1:0.7 molar ratio calcium hydroxide:mucic acid, 5 g water in mucic acid salt slurry) was 98%, the “% RE” value ([1]; curly hair, 6 g 7% calcium hydroxide cream, 1:0.7 molar ratio calcium hydroxide:mucic acid, 6 g water in mucic acid salt slurry) was 99% and the “% RE” value ([1]; naturally kinky hair, 30 minutes, 6 g 7% Ca(OH)2 cream, 0.36 g mucic acid, 0.27 g 50% NaOH, 3 g water, molar ratio calcium hydroxide:mucic acid 1:0.3) was 54%. For the same compound, the “% RE” value ([1]; naturally kinky hair, 30 minutes, 6 g 7% Ca(OH)2 cream, 0.48 g mucic acid, 0.37 g 50% NaOH, 3 g water, molar ratio calcium hydroxide:mucic acid 1:0.4) was 81%, the “% RE” value ([1]; naturally kinky hair, 30 minutes, 6 g 7% Ca(OH)2 cream, 0.60 g mucic acid, 0.46 g 50% NaOH, 3 g water, molar ratio calcium hydroxide:mucic acid 1:0.5) was 80% and the “% RE” value ([1]; naturally kinky hair, 30 minutes, 6 g 7% Ca(OH)2 cream, 0.84 g mucic acid, 0.64 g 50% NaOH, 3 g water, molar ratio calcium hydroxide:mucic acid 1:0.7) was 86%. For the same compound, the “% RE” value ([1]; naturally kinky hair, 30 minutes, 6 g 7% Ca(OH)2 cream, 1.19 g mucic acid, 0.9 g 50% NaOH, 3 g water, molar ratio calcium hydroxide:mucic acid 1:1) was 21%, the “solubility in organic solvents” value (Solubility; most organic solvents, for example alcohols and ethers) was “insoluble” and the “solubility in water (salt form)” value (Solubility; water at high pH) was “about 0.7%”.
In the case of `O=C([O-])CN(CCN(CC(=O)[O-])CC(=O)[O-])CC(=O)[O-].[Na+].[Na+].[Na+].[Na+]` [Na4EDTA, tetrasodium EDTA], the “amount of Ca(OH)2 dissolved in the solution at the end of the reaction” value ([2]; 3 g VERSENE 220 (0.0066 moles) in 97 g water) is reported as 0.60 g, the Appearance ([2]; 0 g Ca(OH)2 added) is reported as “Clear” and the pH ([2]; 0 g Ca(OH)2 added) is reported as 11.62. The Appearance ([2]; 0.20 g Ca(OH)2 added) was “Clear”, the pH ([2]; 0.20 g Ca(OH)2 added) was 13.32 and the Appearance ([2]; 0.40 g Ca(OH)2 added) was “Clear”. The pH ([2]; 0.40 g Ca(OH)2 added) was 13.52, the Appearance ([2]; 0.60 g Ca(OH)2 added) was “Clear” and the pH ([2]; 0.60 g Ca(OH)2 added) was 13.59. For the same compound, the Appearance ([2]; 0.65 g Ca(OH)2 added) was “Cloudy” and the pH ([2]; 0.65 g Ca(OH)2 added) was 13.63.
For `O=C(O)[C@@H](O)[C@H](O)[C@H](O)[C@@H](O)C(=O)O` [mucic acid sodium salt], the pH ([3]; 0.0 g calcium hydroxide added) was 12.39, the pH ([3]; 0.2 g calcium hydroxide added) was 13.02 and the pH ([3]; 0.4 g calcium hydroxide added) was 13.32. It also gave a pH ([3]; 0.6 g calcium hydroxide added) of 13.46, a pH ([3]; 0.8 g calcium hydroxide added) of 13.51 and a pH ([3]; 1.0 g calcium hydroxide added) of 13.53. The pH ([3]; 1.2 g calcium hydroxide added) was 13.55 and the “observation upon mixing with calcium hydroxide” value (Solubility; mucic acid sodium salt mixed with calcium hydroxide) was “precipitation was observed”.
